Source: US11286268B1, “EIF4E-inhibiting compounds and methods” (EFFECTOR THERAPEUTICS, INC., priority 2019, dated 2022)
Where two headings read alike, the source gives them in different places.

Molecular target: recombinant eIF4E (Homo sapiens (Human), UniProt P06730)
Test: Fluorescence polarization competition assay for eIF4E binding potency
In short: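 Competitive displacement format: compounds compete with a fluorescent m7GDP tracer (20 nM) for 75 nM recombinant eIF4E. Incubation is 30 min at room temperature, protected from light, with 1% DMSO. Polarization read gives IC50 over eight 3-fold concentrations.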

[1] = fluorescence polarization competition, 75 nM recombinant eIF4E, 20 nM EDA-m7GDP-ATTO-550, IC50 class, read-out: elF4E FP
[2] = inhibition of eIF4E/EDA-m7GDP-ATTO-550 binding by 50%, Table 4B calculated values, read-out: IC50

recombinant eIF4E, sequence (P06730 whole entry): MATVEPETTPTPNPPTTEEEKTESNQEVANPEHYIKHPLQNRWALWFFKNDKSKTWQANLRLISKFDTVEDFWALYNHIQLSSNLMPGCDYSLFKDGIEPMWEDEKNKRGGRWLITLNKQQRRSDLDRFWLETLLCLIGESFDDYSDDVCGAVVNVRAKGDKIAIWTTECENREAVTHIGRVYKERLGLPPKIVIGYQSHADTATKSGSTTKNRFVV

Row | IC50 [1] [nM] | IC50 [2] [nM] | Compound
1 | 50 to 1000 | 623 | CONC(=O)c1csc2c(-c3cc(Cl)ccc3OCCn3c(C)nc4cc(C(F)(F)F)c(Cl)c(C#N)c4c3=O)ccnc12 [compound 521]
2 | < 50 | 22.7 | Cc1nc2cc(C(F)(F)F)c(CN3CCC(F)(F)CC3)c(C#N)c2c(=O)n1CCOc1ccc(Cl)cc1-c1ccnc2c(C(=O)O)csc12 [compound 522]
3 | < 50 | 34.7 | Cc1nc2cc(C(F)(F)F)c(CN(C)CC(F)F)c(C#N)c2c(=O)n1CCOc1ccc(Cl)cc1-c1ccnc2c(C(=O)O)csc12 [compound 525]
4 | 50 to 1000 | 64.1 | Cc1nc2cc(C(F)(F)F)c(CN3CCCC3)c(C#N)c2c(=O)n1CCOc1ccc(Cl)cc1-c1ccnc2c(C(=O)O)csc12 [compound 526]
5 | < 50 | 24.8 | CCN(CC)Cc1c(C(F)(F)F)cc2nc(C)n(CCOc3ccc(Cl)cc3-c3ccnc4c(C(=O)O)csc34)c(=O)c2c1C#N [compound 527]
6 | < 50 | 27.1 | Cc1nc2cc(C(F)(F)F)c(CN3CCCCC3)c(C#N)c2c(=O)n1CCOc1ccc(Cl)cc1-c1ccnc2c(C(=O)O)csc12 [compound 528]
7 | < 50 | 5.78 | Cc1cc(-c2cc(Cl)ccc2OCCn2c(C)nc3ccc(C(F)(F)CN(C)C)c(C#N)c3c2=O)c2scc(C(=O)O)c2n1 [compound 529]
8 | < 50 | 6.65 | Cc1nc2cc(C(F)F)c(CN(C)C)c(C#N)c2c(=O)n1CCOc1ccc(Cl)cc1-c1ccnc2c(C(=O)O)csc12 [compound 530]
9 | < 50 | 42.9 | Cc1nc2cc(OC(F)F)c(CN(C)C)c(C#N)c2c(=O)n1CCOc1ccc(Cl)cc1-c1ccnc2c(C(=O)O)csc12 [compound 531]
10 | < 50 | 45.1 | Cc1nc2cc(OC(F)(F)F)c(CN(C)C)c(C#N)c2c(=O)n1CCOc1ccc(Cl)cc1-c1ccnc2c(C(=O)O)csc12 [compound 532]
11 | 50 to 1000 | 62.7 | COCc1cc(F)c2cc(C)n(CCOc3ccc(Cl)cc3-c3ccnc4c(C(=O)O)csc34)c(=O)c2c1C#N [compound 533]
12 | < 50 | 30.2 | CSCc1cc(F)c2cc(C)n(CCOc3ccc(Cl)cc3-c3ccnc4c(C(=O)O)csc34)c(=O)c2c1C#N [compound 534]
13 | 50 to 1000 | 244 | Cc1nc2cc(C(F)(F)F)cc(C#N)c2c(=O)n1CCOc1ccc(Cl)cc1C1CCNC(C(=O)O)C1 (stereo not drawn) [compound 535]
14 | < 50 | 46.6 | Cc1nc2cc(OC(F)F)c(Cl)c(C#N)c2c(=O)n1CCOc1ccc(Cl)cc1-c1ccnc2c(C(=O)O)csc12 [compound 537]
15 | < 50 | 22.3 | Cc1nc2cc(OC(F)F)c(C#N)c(C#N)c2c(=O)n1CCOc1ccc(Cl)cc1-c1ccnc2c(C(=O)O)csc12 [compound 538]
16 | < 50 | 47.2 | Cc1nc2cc(OC(F)F)c(C(F)F)c(C#N)c2c(=O)n1CCOc1ccc(Cl)cc1-c1ccnc2c(C(=O)O)csc12 [compound 539]
17 | < 50 | 14 | Cc1nc2cc(OC(F)F)c(C(F)(F)F)c(C#N)c2c(=O)n1CCOc1ccc(Cl)cc1-c1ccnc2c(C(=O)O)csc12 [compound 540]
18 | < 50 | 49.1 | Cc1nc2cc(OC(F)F)c(OC(F)F)c(C#N)c2c(=O)n1CCOc1ccc(Cl)cc1-c1ccnc2c(C(=O)O)csc12 [compound 541]
19 | < 50 | 20.2 | Cc1nc2cc(OC(F)(F)F)c(Cl)c(C#N)c2c(=O)n1CCOc1ccc(Cl)cc1-c1ccnc2c(C(=O)O)csc12 [compound 542]

Row | IC50 [1] [nM] | IC50 [2] [nM] | Compound
20 | < 50 | 38.2 | Cc1nc2cc(OC(F)(F)F)c(C#N)c(C#N)c2c(=O)n1CCOc1ccc(Cl)cc1-c1ccnc2c(C(=O)O)csc12 [compound 543]
21 | < 50 | 7.81 | Cc1nc2cc(F)c(OC(F)F)c(C#N)c2c(=O)n1CCOc1ccc(Cl)cc1-c1ccnc2c(C(=O)O)csc12 [compound 545]
22 | < 50 | 43.6 | Cc1nc2cc(Cl)c(OC(F)F)c(C#N)c2c(=O)n1CCOc1ccc(Cl)cc1-c1ccnc2c(C(=O)O)csc12 [compound 546]
23 | 50 to 1000 | 134 | Cc1nc2cc(C#N)c(OC(F)F)c(C#N)c2c(=O)n1CCOc1ccc(Cl)cc1-c1ccnc2c(C(=O)O)csc12 [compound 547]
24 | < 50 | 47.2 | Cc1nc2cc(C(F)F)c(OC(F)F)c(C#N)c2c(=O)n1CCOc1ccc(Cl)cc1-c1ccnc2c(C(=O)O)csc12 [compound 548]
25 | < 50 | 19.3 | Cc1nc2cc(C(F)(F)F)c(OC(F)F)c(C#N)c2c(=O)n1CCOc1ccc(Cl)cc1-c1ccnc2c(C(=O)O)csc12 [compound 549]
26 | 50 to 1000 | 87.8 | Cc1nc2cc(Cl)c(OC(F)(F)F)c(C#N)c2c(=O)n1CCOc1ccc(Cl)cc1-c1ccnc2c(C(=O)O)csc12 [compound 550]
27 | < 50 | 29.2 | Cc1nc2cc(C(F)F)c(OC(F)(F)F)c(C#N)c2c(=O)n1CCOc1ccc(Cl)cc1-c1ccnc2c(C(=O)O)csc12 [compound 551]
28 | 50 to 1000 | 50.9 | Cc1nc2cc(CN(C)C)c(OC(F)(F)F)c(C#N)c2c(=O)n1CCOc1ccc(Cl)cc1-c1ccnc2c(C(=O)O)csc12 [compound 552]
29 | < 50 | 13.4 | Cc1nc2cc(C(F)(F)F)c(CN(C)C)c(C#N)c2c(=O)n1CC#Cc1ccc(Cl)cc1-c1ccnc2c(C(=O)O)csc12 [compound 553]
30 | < 50 | 31.8 | Cc1nc2cc(C(F)(F)F)c(Cl)c(C#N)c2c(=O)n1CC#Cc1ccc(Cl)cc1-c1ccnc2c(C(=O)O)csc12 [compound 554]
31 | < 50 | 10.8 | Cc1sc2c(-c3cc(Cl)ccc3OCCn3c(C)nc4cc(C(F)(F)F)c(Cl)c(C#N)c4c3=O)ccnc2c1C(=O)O [compound 555]
32 | < 50 | 22.7 | Cc1sc2c(-c3cc(Cl)ccc3OCCn3c(C)nc4cc(C(F)(F)F)c(CN(C)C)c(C#N)c4c3=O)ccnc2c1C(=O)O [compound 556]
33 | < 50 | 6.4 | Cc1nc2c(F)cc(C(F)F)c(C#N)c2c(=O)n1CC#Cc1ccc(Cl)cc1-c1ccnc2c(C(=O)O)csc12 [compound 557]
34 | < 50 | 27.2 | Cc1cc(-c2cc(Cl)ccc2OCCn2c(C)nc3cc(C(F)(F)F)c(Cl)c(C#N)c3c2=O)c2scc(C(=O)O)c2n1 [compound 558]
35 | < 50 | 8.69 | Cc1cc(-c2cc(Cl)ccc2OCCn2c(C)nc3cc(C(F)(F)F)c(CN(C)C)c(C#N)c3c2=O)c2scc(C(=O)O)c2n1 [compound 559]
36 | < 50 | 4.77 | Cc1cc(-c2cc(Cl)ccc2C#CCn2c(C)nc3cc(C(F)(F)F)cc(C#N)c3c2=O)c2scc(C(=O)O)c2n1 [compound 560]
37 | 50 to 1000 | 56.2 | Cc1cc(-c2cc(Cl)ccc2C#CCn2c(C)nc3cc(C(F)(F)F)c(Cl)c(C#N)c3c2=O)c2scc(C(=O)O)c2n1 [compound 561]
38 | < 50 | 8.78 | Cc1cc(-c2cc(Cl)ccc2C#CCn2c(C)nc3cc(C(F)(F)F)c(CN(C)C)c(C#N)c3c2=O)c2scc(C(=O)O)c2n1 [compound 562]

Row | Compound | IC50 [1] [nM] | IC50 [2] [nM]
39 | Cc1nc2cc(C(F)(F)F)c(CN3[C@@H]4CC[C@H]3COC4)c(C#N)c2c(=O)n1CCOc1ccc(Cl)cc1-c1ccnc2c(C(=O)O)csc12 [compound 523] | < 50 | 23.9
